14 molecules from ChEMBL document CHEMBL3826945, “Discovery of novel dihydrobenzofuran cyclopropane carboxylic acid based calcium sensing receptor antagonists for the treatment of osteoporosis” (Bioorg Med Chem Lett, 2016) can be followed below.

The target in data set [1] is T1, Extracellular calcium-sensing receptor (Homo sapiens, UniProt P41180).
T1 sequence (P41180 whole entry): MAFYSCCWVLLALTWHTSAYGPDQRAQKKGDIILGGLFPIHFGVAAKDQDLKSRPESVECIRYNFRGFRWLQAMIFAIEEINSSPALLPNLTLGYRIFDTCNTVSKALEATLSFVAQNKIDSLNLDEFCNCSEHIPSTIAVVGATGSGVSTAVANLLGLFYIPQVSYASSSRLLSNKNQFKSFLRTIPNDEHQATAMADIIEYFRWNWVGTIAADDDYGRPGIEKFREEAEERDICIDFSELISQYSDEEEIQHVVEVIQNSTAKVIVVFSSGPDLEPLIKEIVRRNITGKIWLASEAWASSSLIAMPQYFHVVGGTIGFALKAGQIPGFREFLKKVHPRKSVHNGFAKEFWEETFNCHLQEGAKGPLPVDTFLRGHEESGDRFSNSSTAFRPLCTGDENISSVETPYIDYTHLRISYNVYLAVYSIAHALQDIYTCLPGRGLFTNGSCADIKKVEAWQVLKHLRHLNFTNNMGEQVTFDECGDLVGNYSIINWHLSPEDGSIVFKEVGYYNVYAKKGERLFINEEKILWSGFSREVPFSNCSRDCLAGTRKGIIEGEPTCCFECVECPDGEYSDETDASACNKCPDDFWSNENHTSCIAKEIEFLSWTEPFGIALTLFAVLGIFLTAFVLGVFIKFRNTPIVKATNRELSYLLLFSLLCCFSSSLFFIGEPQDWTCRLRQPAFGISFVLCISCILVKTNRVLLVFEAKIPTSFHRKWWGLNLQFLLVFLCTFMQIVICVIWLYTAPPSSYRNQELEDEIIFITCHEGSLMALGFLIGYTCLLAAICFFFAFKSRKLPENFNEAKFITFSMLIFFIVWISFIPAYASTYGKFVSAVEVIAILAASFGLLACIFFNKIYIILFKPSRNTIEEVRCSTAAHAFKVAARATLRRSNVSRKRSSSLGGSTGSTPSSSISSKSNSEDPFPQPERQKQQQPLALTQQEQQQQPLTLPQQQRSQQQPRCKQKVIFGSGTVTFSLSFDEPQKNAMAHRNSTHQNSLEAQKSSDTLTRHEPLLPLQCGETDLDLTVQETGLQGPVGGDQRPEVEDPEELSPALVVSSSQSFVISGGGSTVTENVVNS
Put plainly: Antagonist activity at calcium sensing receptor (unknown origin) by cell based FLIPR assay. Type of data set: functional.

Data set [2] is described as follows: Clearance in Sprague-Dawley rat plasma at 2 mg/kg, iv or 5 mg/kg, po. The format is ADME, organism-based.
Data set [3] in a line: Tmax in Sprague-Dawley rat at 2 mg/kg, iv or 5 mg/kg, po. The format is ADME, organism-based. Conditions: in vivo.
In data set [4] the test system is Rattus norvegicus. Briefly: Stimulation of parathyroid hormone release in po dosed overnight fasted Sprague-Dawley rat serum after 7 days by ELISA. The format is functional, organism-based. (An ELISA detects its analyte on a solid surface through an enzyme-linked reagent.)
In data set [5] the test system is Rattus norvegicus. Put plainly: Stimulation of parathyroid hormone release in overnight fasted Sprague-Dawley rat serum at 30 mg/kg, po measured within 1 hour by ELISA relative to vehicle treated control. The format is functional.
Data set [6] has as its system Rattus norvegicus. Put plainly: Stimulation of parathyroid hormone release in overnight fasted Sprague-Dawley rat serum at 30 mg/kg, po measured after 2 hrs by ELISA. The format is functional, organism-based.
Data set [7] can be described thus: Oral bioavailability in Sprague-Dawley rat at 5 mg/kg. Type of data set: ADME, organism-based. The conditions noted are these: in vivo.
Data set [8] is described as follows: Cmax in Sprague-Dawley rat at 2 mg/kg, iv or 5 mg/kg, po. Type of data set: ADME, organism-based. The conditions noted are these: in vivo.
The nature of data set [9]: Half life in Sprague-Dawley rat at 2 mg/kg, iv or 5 mg/kg, po. The format is ADME, organism-based. The conditions noted are these: in vivo.

pIC50: −log10 of the molar value. Activity calls are given as the source filed them. Some results are limits rather than exact numbers.

One may read the pIC50 as −log10 of the IC50, conventionally taken in molar units. `Cc1ccc([C@@H](C)OC[C@H](O)CNC(C)(C)CCSc2ccccc2)c2c1O[C@@H]1[C@@H](C(=O)O)[C@H]21`: the pIC50 in data set [1] was 7.29. For orientation: Tmax means the time at which the peak concentration occurs. The term bioavailability denotes the share of a dose that reaches the circulation, judged against a reference dose that is usually intravenous. Low readings indicate little systemic uptake, high ones much systemic uptake. By Cmax is commonly meant the maximum level reached in the sampled fluid or tissue. A word on the half-life: it is the time needed for the level to fall by half in the phase considered. Regarding `CSc1ccc(CC(C)(C)NC[C@@H](O)CO[C@H](C)c2ccc(C)c3c2[C@@H]2[C@H](O3)[C@H]2C(=O)O)cc1F`, in data set [2], the clearance came to 40.2 mL/min/kg. Besides, the pIC50 in [1] is 7.56. Also, the Tmax in data set [3] is below 1 h. The Activity result in the data set with Rattus norvegicus [4] was “Dose-dependent effect”. Further, the “fold change (FC)” value in the data set with Rattus norvegicus [5] was 3. The result in the data set with Rattus norvegicus [6] was inactive. The molecule also registered a bioavailability in data set [7] of 6.9%. Further, the Cmax in data set [8] is 170 nM. The half-life in data set [9] was 1.9 h. On to `Cc1ccc([C@@H](C)OC[C@H](O)CNC(C)(C)Cc2ccc3ncccc3c2)c2c1O[C@@H]1[C@@H](C(=O)O)[C@H]21`, for which, in data set [1], the pIC50 was 6.34. Still for that read-out and setting: to `Cc1ccc([C@@H](C)OC[C@H](O)CNC(C)(C)Cc2ccc3ccccc3c2)c2c1O[C@@H]1[C@@H](C(=O)O)[C@H]21` belongs 8.13; to `Cc1ccc([C@@H](C)OC[C@H](O)CNC(C)(C)Cc2ccc3ccccc3c2)c2c1O[C@H]1[C@H](C(=O)O)[C@@H]21`, 7.67. Same read-out and setting: the same measure for `Cc1ccc([C@@H](C)OC[C@H](O)CNC(C)(C)Cc2ccc3c(c2)CCS3(=O)=O)c2c1O[C@@H]1[C@@H](C(=O)O)[C@H]21`: below 5.00. The same measure, in the same setting: the same measure for `Cc1ccc(C(C)OC[C@H](O)CNC(C)(C)Cc2ccc(Cl)c(F)c2)c2c1OC1C(C(=O)O)C21` (stereo partly specified): 6.69; for `Cc1ccc([C@@H](C)OC[C@H](O)CNC(C)(C)CCCc2ccccc2)c2c1O[C@@H]1[C@@H](C(=O)O)[C@H]21`: 7.55. As to `Cc1ccc(CC(C)(C)NC[C@@H](O)CO[C@H](C)c2ccc(C)c3c2[C@@H]2[C@H](O3)[C@H]2C(=O)O)cc1C`, in data set [1], the pIC50 is 7.75.

As for `Cc1ccc([C@@H](C)OC[C@H](O)CNC(C)(C)Cc2ccc3sccc3c2)c2c1O[C@@H]1[C@@H](C(=O)O)[C@H]21`, the pIC50 in [1] was 8.02. The same measure, in the same setting: to `Cc1ccc(C(C)OC[C@H](O)CNC(C)(C)CC2Cc3ccccc3C2)c2c1OC1C(C(=O)O)C21` (stereo partly specified) belongs 6.93. Turning to `COc1ccc(CC(C)(C)NC[C@@H](O)CO[C@H](C)c2ccc(C)c3c2[C@@H]2[C@H](O3)[C@H]2C(=O)O)c(Cl)c1`, the clearance in data set [2] was 41 mL/min/kg. Further, the pIC50 in data set [1] is 7.71. The molecule further came in with a bioavailability in data set [7] of 16.5%. In data set [8], the Cmax was found to be 300 nM. In addition, the half-life in data set [9] was 2.9 h. Turning to `Cc1ccc(C(C)OC[C@H](O)CNC(C)(C)Cc2ccc3ccccc3c2)c2c1OC1C(C(=O)O)C21` (stereo partly specified), the pIC50 in data set [1] was 7.19. Still for that read-out and setting: the same measure for `CSc1ccc(CC(C)(C)NC[C@@H](O)CO[C@H](C)c2ccc(C)c3c2[C@@H]2[C@H](O3)[C@H]2C(=O)O)cc1`: 7.41.
